What is called kinetic solubility is solubility judged after dilution from a stock solution rather than from solid. For orientation: efflux ratio means a quotient of directional permeabilities that is used to spot active efflux. The term Papp A→B denotes the apparent permeability from the apical to the basolateral side of a cell layer.

Experimental findings from patent US20220073532A1, “INHIBITORS OF CGAS ACTIVITY AS THERAPEUTIC AGENTS” (BELLBROOK LABS, LLC, priority 2019, published 2022) are described below.

Series [1] can be described thus: Human microsomal stability (NADPH). It counts as in vitro ADME. To be noted: liver microsomes, read-out: Human MS Stability (NADPH) t1/2. The method, then: (§1) ADME/PK: Compounds are tested in Caco-2 and MDR1-MDCK permeability assays to provide a measure of intestinal absorption, blood-brain-permeability and efflux by P-glycoprotein (P-gp), a frequent obstacle to effective CNS delivery. CNS drugs are associated with high passive membrane permeability (Papp>1×10^−6 cm/sec) and have low efflux ratios (Papp(B-A)/Papp(A-B)<2.5). Metabolic stability is tested using mouse and human liver microsomes incubated with NADPH for CYP-dependent metabolism and with UDPGA for glucuronidation. Compounds are tested for pharmacokinetics and brain penetration in mice using oral, intravenous and intraperitoneal administration.
(In general: Liver microsomes are a subcellular fraction often used to study metabolism.)

Another series in a line: Ksol (PBS, pH 7.4). Format: physicochemical. The conditions noted are these: pH 7.4, aqueous buffer, kinetic from dmso stock.
Series [2] deals with NFκB-driven SEAP expression in THP-1 Dual cells. Kind of series: THP-1 Dual NFκB-SEAP reporter assay. To be noted: THP-1 Dual cells. Format: cell-based, human. The method, then:
IFN induction in human monocyte cell lines: The human monocyte cell line THP-1 gives a robust cGAS/STING-dependent type I IFN response and has been used extensively for studies on the pathway. Typically, cells are stimulated by transfection with dsDNA and gene expression is assessed using an ELISA for IFNβ, a reporter gene assay, and/or cGAS/STING pathway markers such as STING phosphorylation. These assays were validated using the TBK1 inhibitor, BX-795, which acts downstream of cGAS/STING, as a probe; THP-1 Dual cells (Invivogen, San Diego) are used as the reporter cell line for routine compound testing (FIG. 5A). These assays were optimized, including equalizing responses with transfected DNA and cGAMP and comparing responses between undifferentiated cells and cells that have been differentiated to macrophages (which show little difference). […] Stimulation of THP-1 Dual cells with damage-associated molecular pattern molecules (DAMPs) that act through pattern recognition receptors other than cGAS provides another way to confirm the specificity of putative cGAS inhibitors.
For orientation: In a reporter assay the amount or activity of a reporter protein is the signal.

Series [3] relates to Kinase, PDE, GTPase, ENPP1 (Abl1, PKA, TBK1, Rac1, PDE4A, ENPP1). Kind of series: Selectivity panel of nucleotide-utilizing enzymes. It counts as biochemical. How it is done: Selectivity profiling: A panel of nucleotide-utilizing enzymes that included kinases (Abl1, PKA, TBK1—which transduces cGAS/STING signals, see FIG. 5A) a GTPase (Rac1), a phosphodiesterase (PDE4A), and ENPP1, a nucleotidase that degrades cGAMP, was used preliminarily. cGAS assays were used to perform dose response measurements with cGAS inhibitors. In addition to these enzymes, inhibitors are tested with three other members of the oligoadenylate synthases (OAS), nucleic acid sensors that activate innate immunity via production of short, 2′-5′ oligoadenylate second messengers. Methods for expression and purification of the human and/or porcine enzymes in E. coli or baculovirus-infected insect cells have been developed as well as a simple, absorbance-based assay using commercially available pyrophosphate kit. In addition, an FP-based assay (competitive displacement of a fluor-cGAMP tracer) is developed to test compounds as ligands for STING (which could be one explanation for the partial activity of Compound 15 in cells stimulated with cGAMP) (FIG. 5).

A further series has as its system MDR1 (P-glycoprotein). Kind of series: MDCK-MDR permeability. It counts as in vitro ADME, canine. To be noted: dog, MDCK-MDR1. The method, then:
as §1

Series [4] relates to MDCK-MDR (Madin-Darby Canine Kidney cells-Multi Drug Resistance pump). Kind of series: MDCK-MDR permeability. Format: in vitro ADME. How it is done: as §1

Molecules are shown by their SMILES. In brackets after ≈: the same amount, converted by molar mass.

Take `Cc1nc(N2CCC[C@H]2C(=O)O)c2oc3ccccc3c2n1` [Compound 15, (2-methylbenzofuro[3,2-d]pyrimidin-4-yl)-L-proline]: the half-life in series [1] is more than 2 h. Further, the kinetic solubility in “Ksol (PBS, pH 7.4)” is 520 µM (≈ 155 µg/mL). The “inhibition of NFκB (SEAP)-driven transcription” value in series [2] is 50-75%. Further, the “Off-Target Activity (Kinase, PDE, GTPase, ENPP1)” value in series [3] is listed as “None”. For the same compound, in series [3] (at 200 μM), the “inhibitory activity with a panel of nucleotide-utilizing enzymes” value is reported as “lack of inhibitory activity”. Also, the efflux ratio in the series with MDR1 (P-glycoprotein) was 0.4. In the series with MDR1 (P-glycoprotein) (A→B), this compound came in with an apical-to-basolateral permeability (Papp A→B) of 9.8 ×10⁻⁶ cm/s. In addition, the MDR-1-mediated export entry in series [4] is recorded as “no indication of MDR-1-mediated export”.
